Results taken from US20240131356A1, “COMBINATION OF INTRACELLULAR AND EXTRACELLULAR PHOTOSENSITIZERS FOR TREATMENT OF BACTERIAL INFECTION” (priority 2021, published 2024).
“Also recorded” adds a separate entry of the source. Where two headings read alike, the source gives them in different places.

How the values were obtained:
[1] = system: S. aureus; test: Toxicity of analogs to bacteria in the XylE cultures; assay type: cell-based, Staphylococcus aureus; conditions: target dose of 30 μM
Description: (§1) To maximize the production of coproporphyrin III and thereby increase blue-light mediated killing of S. aureus, synthesized analogs of VU0038882 were tested. To determine the relative efficacy of each analog, a Newman strain of S. aureus, transformed with the phrt.xylE (11) reporter vector was used. This reporter allows for colorimetric assessment of intracellular heme production. To perform the assay, each individual analog was added to 3 mL of TSB+10 μg/mL chloramphenicol to reach a concentration of 30 μM, and then 700 μL of this newly made 30 μM solution was added to 1.3 mL of remaining TSB+10 μg/mL chloramphenicol media to create the 10 μM concentration. Either 10 μM or 30 μM concentrations of compounds in medium were then aliquoted into three 0.5 mL replicate tubes. Three separate 16- to 18-hour overnight subcultures from isolated colonies were back-diluted 1:100 into the tubes creating three biological replicates and were subcultured for 6 hours at 37° C. and 180 rpm. After incubation, the cells were pelleted at 16,400 g for 5 minutes and the supernatant aspirated before washing with 0.5 mL of 20 mM potassium phosphate wash buffer. After pelleting the cells again at 16,400 g for 5 minutes the wash buffer was aspirated, and the pellets were stored at −80° C. until further use.
The most consistent activity with non-furan-containing compounds was found with thiophene replacements.

[2] = system: hrtAB promoter (HssRS activation; CgoX activation); test: XylE colorimetric reporter assay (phrt.xylE), activation of HssRS / hrtAB expression; assay type: cell-based, Staphylococcus aureus strain Newman; conditions: for XylE activity in comparison to '8882 at 10 μM: six-hour exposure (FIG. 2A); for Specifc Activity (nMol/min*mg), data collected at 10 uM: footnote a: data collected at 10 uM
Description: as §1
When the cells were ready to be lysed and data collected, samples were removed from the −80° C. freezer, allowed to thaw, and resuspended in 150 μL of lysis buffer (100 mM potassium phosphate pH=8.0, 10% v/v acetone, 20 μg/mL lysostaphin) before incubation in a 37° C. bead bath for 20 minutes and then cooled for 5 minutes on ice. The samples were then centrifuged at 16,400 g and 4° C. for 30 minutes to separate the pellet from the lysate, which was then placed into a 96-well microtiter plate and kept on ice. The lysate from each sample was pipetted into 20 μL aliquots on a round-bottom or flat-bottom 96-well plate on ice. The round bottom plate was labeled for bicinchoninic acid assay (BCA) protein content analysis, and 10 μL of BCA standards was added to extra wells on the plate. Protein quantification was performed using a Pierce BCA Protein Assay Kit as per the manufacturer's instructions. While the BCA plate was in the incubator, the flat-bottom plate was prepared by thawing 1 M catechol on ice and making 100 mM potassium phosphate (pH=8.0) assay buffer. After preparing a kinetic read at 375 nm for 10 minutes with a minimal interval between reads, the catechol was diluted 1:1,000 into the assay buffer and quickly dispensed into a sterile basin, then 200 μL of the solution was pipetted into each well using a multichannel pipette. All data were exported into Excel software (Microsoft) and analyzed for specific activity of each compound and activity relative to VU0038882 controls.
After 219 analogs had been screened, the compounds with the best percent VU0038882 activity were tested again following the same protocol, but with twelve replicates per concentration with data expressed as averages ±the standard deviation (SD). Additionally, the top-performing compounds were tested using the XylE protocol with a concentration gradient to determine their half maximal effective concentration (EC50) values.
Photosensitizer-conjugated antibodies expose bacteria to reactive oxygen species (ROS) externally, but this treatment can be paired with small molecule treatment to generate ROS internally via heme biosynthesis pathway intermediates. To discover new compounds capable of activating CgoX and/or displaying less toxicity to eukaryotic cells, a medicinal chemistry campaign was initatied based on systematic alternation of the '8882 structure. Each new analog was tested for the ability to activate HssRS using the previously described XylE colorimetric assay that employs a reporter construct in which the hrtAB promoter is fused to a xylE reporter gene. […]

[3] = system: S. aureus USA300 luxBADCE; test: In vivo murine superficial skin (ear) infection model with PDT, bioluminescence imaging; parameters: species or system BALB/cJ mice; conditions: for Bacterial growth / luminescence in infected mouse ear compared to untreated animals: '8882 plus conjugated antibodies (i.p. and topical) plus 690 nm and 395 nm light, two-day regimen
Description: All mice were maintained in compliance with Vanderbilt's Institutional Animal Care and Use Committee regulations (protocol M1800026). To create a superficial skin wound a similar model of infection was used, as previously described (44), with modifications to relocate the area of infection to the inner epithelial layer of each ear. Eight- to 10-week-old female BALB/cJ mice were used for the S. aureus infections. Twenty-four hours prior to infection the mice were injected intraperitoneally with 20 μg/mL of both STAU-149 (anti-IsdA) and STAU-281 (anti-IsdB) in PBS. Overnight cultures of S. aureus USA300 with a chromosomally-integrated luxBADCE cassette (45) were subcultured 1:50 into TSB containing 1 mM 2,2-dipyridyl. Cultures were grown for 3.5 h to reach exponential phase of growth. Cell pellets were washed twice with ice-cold PBS with the original culture volume, centrifuged, and resuspended in 250 μL of ice-cold PBS. Approximately 5×10^7 log-phase CFUs were inoculated in 5 μL of PBS directly onto the surface of the wound present on each ear, and each mouse was again injected intraperitoneally with antibodies. Mice were placed into new sterile cages in groups of three in accordance with their experimental condition. Four hours post-infection, the mice were visualized using the IVIS spectrum (Perkin Elmer) in vivo bioluminescence imaging system, with data being collected with a 5-minute exposure time. Each mouse was then transferred to a nose cone under continuous isoflurane anesthesia and, 30 minutes prior to light exposure, the ears were exposed to 10 ∥L of the 450 ∥M '8882 and 20 μg/mL mAb cocktail in PBS containing 10% DMSO. Control mice were left untreated. The right ventrodorsal ear of each mouse was exposed to the 395-nm LED for 20.6-23.1 minutes delivering a total energy dose of 50 J/cm^2. […]
The left ventrodorsal ear of each mouse was not exposed to light during treatment. […] Luminescence was quantified for individual ears using ImageJ (FIJI) (46-48). […] Post-treatment images were again collected at 5-minute exposure times using the IVIS system and analyzed using ImageJ (FIJI). […]

[4] = system: S. aureus strain Newman wild-type (iron-starved); test: In vitro antimicrobial photodynamic therapy light killing assay; assay type: cell-based, Staphylococcus aureus; conditions: for Growth inhibition / reduction of CFUs/mL by small molecule plus IR700DX-conjugated anti-IsdA and anti-IsdB mAb mixture: combination with mAb mixture, 63 J/cm^2 690 nm and 50 J/cm^2 395 nm light (FIG. 3A)
Description: Iron-chelated bacterial cultures of the indicated strains were prepared. Antibodies of interest were added to 5 mL of iron-chelated TSB at a concentration of 2.5 ug/mL for subculture. These conditions were then separated into four-1 mL aliquots, which was comprised of replicates for both the experimental and control strains. The iron-depleted bacterial strains Newman wildtype and Newman ΔisdABΔspa (40) were then normalized to an OD600 of 1.0 and back diluted 1:100 into each condition from the overnight cultures. These subcultures were then incubated at 37° C. and 180 rpm for 30 minutes, and the bacteria were pelleted via centrifugation for 5 minutes at 16,400 g and 4° C. The pellet was washed twice in 1 mL of cold PBS before being finally resuspended in 1 mL of cold PBS.
During the subculture incubation, a measurement was taken of the power of each light to calculate the time needed to achieve a light dose of 63 J/cm^2 for the 690 nm NIR light (M680L4; Thorlabs) and 50 J/cm^2 for the 395 nm blue-LED (M395L4; Thorlabs) mounted 5 cm above the measurement probe. This measurement was taken using a photodiode and power meter (919P-003-10, 843-R; Newport) with a cutout 3×3 portion of a black 384-well microtiter plate positioned centrally over the measurement probe. The outer wells were covered with aluminum foil to ensure that the measurement taken by the probe was strictly limited to the light that entered the 0.1225 cm^2 area of the well. This approach allowed for the irradiance of the light to be calculated according to (readout (mW)/0.1225 cm^2). This value was then divided into the total light dose for each light and divided by 60 to determine the light dose in minutes. The outputs of the 690 nm and 395 nm LEDs were spatially combined using a long-pass dichroic filter (FF470-Dio; Semrock Inc.) for all experimental conditions where light was present.
The spatial intensity profile of the light output is approximately Gaussian in shape in both directions, so 25 μL of each sample was aliquoted into a 3×3 square on a black 384-well microtiter plate with the center well remaining empty, since it would receive a stronger dose than the surrounding wells. The samples were organized such that the conditions alternated wild-type and knockout in a clockwise fashion, beginning with the lower left corner well. In addition, the center well was centered under the light to equate the radial diminishment of light dose amongst the samples.
To ensure the compounds' efficacy in the full therapeutic regimen and reduce potential unknown variables, each of the compounds was tested with 395 nm or 690 nm wavelengths and with Newman WT or Newman ΔisdAB Δspa. […]

[5] = Staphylococcus aureus, NEWMAN, read-out: logEC50 (converted)

Compound	Toxicity to bacteria (S. aureus) [1]	XylE activity in comparison to '8882 at 10 μM [2]	logEC50 ([2]; XylE protocol with a concentration gradient, Newman phrt.xylE)	EC50 ([2]; XylE protocol with a concentration gradient, Newman phrt.xylE, read-out: EC50) [µM]	Specifc Activity (nMol/min*mg), data collected at 10 uM ([2]; 6 h subculture)	Bacterial growth / luminescence in infected mouse ear compared to untreated animals [3]	Bacterial growth / luminescence in infected mouse ear compared to untreated animals ([3]; listed as VU00038882)	Bacterial burden in infected mouse ear, antibodies plus '8882 without light ([3]; no light exposure)	Decrease of S. aureus viability compared with untreated cells, combined treatment ([4]; '8882 plus IR700DX-conjugated IsdA and IsdB antibodies plus 690 nm and 395 nm light)	Efficacy against S. aureus in PDT, small molecule alone ([4]; alone, with light)	Growth inhibition / reduction of CFUs/mL by small molecule plus IR700DX-conjugated anti-IsdA and anti-IsdB mAb mixture [4]	Growth inhibition / reduction of CFUs/mL by small molecule plus IR700DX-conjugated anti-IsdA and anti-IsdB mAb mixture ([4]; listed as VU0038882)	Specifc Activity @ 30 μM ([2]; 30 μM compound, 6 h subculture, XylE activity normalized to protein) [nmol/min/mg]	EC50 ([2]; Staphylococcus aureus, NEWMAN) [µM]	EC50 [2, 5] [µM]
2-(5-(5-(Hydroxymethyl)thiophen-2-yl)-1H-pyrazol-3-yl)naphthalen-1-ol [′9952]	overtly toxic to bacteria; also recorded: exhibiting toxicity to S. aureus	highest activity at 10 μM observed to date	−5.182 ± 0.065	6.58	18.10 ± 1.80^a nMol/min*mg	–	–	–	–	–	–	–	–	–	–
Oc1c(-c2cc(-c3ccco3)[nH]n2)ccc2ccccc12 [′8882, 2-(5-(Furan-2-yl)-1H-pyrazol-3-yl)naphthalen-1-ol]	–	–	–	–	–	significantly less bacterial growth	significant reduction in bacterial luminescence	a reduction in bacterial burden but did not reach the same extent as the combinatorial treatment	10,000 fold	efficacious against S. aureus	significant growth inhibition of S. aureus	greater reduction of CFUs/mL in vitro than either condition alone	30.04 ± 10.24	10.5	10.5
Oc1c(-c2cc(-c3ccoc3)[nH]n2)ccc2ccccc12 [′9133, 2-(5-(Furan-3-yl)-1H-pyrazol-3-yl)naphthalen-1-ol]	overtly toxic to bacteria; also recorded: exhibiting toxicity to S. aureus	outperformed '8882	–	–	8.346 ± 1.304^a nMol/min*mg	–	–	–	–	–	–	–	–	8.17	8.17
